{"source": "paper PMC3903478", "about": "“Expression and Properties of the Highly Alkalophilic Phenylalanine Ammonia-Lyase of Thermophilic Rubrobacter xylanophilus” (PLoS ONE, 2014)", "target": "T1, RxPAL (phenylalanine ammonia-lyase of Rubrobacter xylanophilus) (Rubrobacter xylanophilus, UniProt Q1AV79)", "T1 construct": "gene Rxyl_1739; full length (540 AA), N-terminal His6-tag kept, codon-optimised synthetic gene in pBAD-HisB, expressed in E. coli TOP10, Ni-NTA purified; MIO prosthetic group formed from ASG", "T1 sequence (Q1AV79 entry or part of it)": "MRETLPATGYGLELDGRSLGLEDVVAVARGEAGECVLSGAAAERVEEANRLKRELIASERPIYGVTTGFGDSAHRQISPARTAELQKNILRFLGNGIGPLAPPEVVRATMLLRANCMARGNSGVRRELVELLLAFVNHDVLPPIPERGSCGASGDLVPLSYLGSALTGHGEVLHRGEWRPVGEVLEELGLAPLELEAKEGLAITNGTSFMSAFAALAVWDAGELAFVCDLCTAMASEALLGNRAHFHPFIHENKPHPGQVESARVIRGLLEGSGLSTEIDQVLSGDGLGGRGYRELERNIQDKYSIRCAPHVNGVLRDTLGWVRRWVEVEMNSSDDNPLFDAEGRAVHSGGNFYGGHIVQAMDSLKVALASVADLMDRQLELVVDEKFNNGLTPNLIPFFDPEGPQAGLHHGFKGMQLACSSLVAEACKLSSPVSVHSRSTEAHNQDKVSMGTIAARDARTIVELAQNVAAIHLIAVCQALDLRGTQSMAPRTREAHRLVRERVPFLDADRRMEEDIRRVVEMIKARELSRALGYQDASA", "test": "UV spectrophotometry at […] nm, cinnamic acid formation", "assay_type": "biochemical", "conditions": "20 mM L-phenylalanine, 0.1 M buffers pH 4.0-12, ionic strength 250 mM", "data": [{"compound": "N[C@@H](Cc1ccccc1)C(=O)O", "note": "[L-phenylalanine]", "values": [{"measurement": "UV spectrophotometry at 290 nm, cinnamic acid formation", "value": "Progress of ammonia elimination from L-phenylalanine was monitored by detection of (E)-cinnamic acid production"}]}]}
